Data on 1 compound can be found in patent US20260364088A1, “TASL MIMICKING MOLECULES AND APPLICATIONS THEREOF” (CEMM - FORSCHUNGSZENTRUM FÜR MOLEKULARE MEDIZIN GMBH, priority 2022, published 2026).

One test has as its system IRF5. Description: Microscopy-based IRF5 nuclear translocation assay in CAL-1 cells. The settings on record: human monocytic and pDC cell lines. The procedure:
CAL-1, THP1 or human primary cells were incubated with dTASL1 and other identified compounds (or the corresponding volume of DMSO vehicle) for 24 h or 48 h at the indicated concentration and subsequently stimulated with R848 (5 μg/ml) for the indicated time. Supernatant or cells were recovered for ELISA, SDS-PAGE or microscopy-based analysis.
5×10^5 CAL-1 cells in 500 μl medium (wildtype, drug-treated or gene-deficient as indicated) were seeded on poly-L-lysine hydrobromide (P6282, Sigma-Aldrich)-coated coverslips in 24-well cell culture plates and immediately stimulated with 5 μg/ml R848 (Invivogen) or left unstimulated. Afterwards, medium was removed and cells were fixed with 4% formaldehyde in PBS for 15 minutes at room temperature (RT), followed by blocking and permeabilization with 5% FBS and 0.3% Triton X-100 in PBS for 1 h at RT. […]
Images were acquired on a Zeiss LSM-980 equipped with an AiryScan2 detector and processed in Zeiss ZEN version 3.6. Computational image analysis was performed with CellProfiler version 4.2.4 and data analyzed in R version 4.2.1 facilitating the following packages: ‘tidyverse’, ‘data.table’ and ‘ggpubr’. In brief nuclei and cytoplasmic regions were identified and nuclear to cytoplasmic median intensity ratios were calculated on a single cell level. […]

In a further test the target is TASL-SLC15A4 complex (Homo sapiens, UniProt Q8N697). Description: PM-associated TASL levels in cells coexpressing ΔN-SLC15A4 and TASL-GFP. The following applies: 10 µM, 24 h. The test is classed as cell-based. The procedure: For live cell imaging cells were plated in PhenoPlate 96-well plates or Ibidi m-Slide 8 (Ibidi) wells at 16 k/well and incubated over-night. Then compounds were added, if indicated, and cells were imaged after 24 h of incubation. Cells were stained with LysoTracker Deep Red L12492 (ThermoFisher) and Hoechst 34580 (ThermoFisher). PhenoPlate images were acquired on an Opera Phenix Plus High-Content Screening System (PerkinElmer) and m-Slide images were acquired on a confocal laser scanning microscope (Zeiss LSM980, Carl Zeiss) equipped with an incubation chamber. Images were analyzed with Fiji-ImageJ.
Encouraged by the fact that the chemical entity of the present invention was showing the desired behavior and specificity profile, it became important to better clarify the molecular basis of this uncommon mechanism of action, i.e interference with a highly specific protein interaction leading to degradation of a single complex component. The effect of dTASL1 on complex assembly was first monitored. […] While total levels of SLC15A4-GFP were unaltered, localization appears to reflect some lysosomal rearrangement. […] To further rule out the residual possibility of an indirect effect, possibly related to TASL maturation or transport, dTASL1 competition assays with GFP-SLC15A4 associated with short N-terminal portions of TASL protein were performed. […]

The target of the next test is ΔN-SLC15A4-GFP (Homo sapiens, UniProt Q8N697). Description: ΔN-SLC15A4-GFP levels and localization in HEK293T cells. The test is classed as cell-based. The settings on record: 10 µM, 24 h. The procedure: Cells transfected with TASL-V5 plasmid were stained for V5-tag and detected with deep red Alexa Fluor 647 secondary antibody to allow for selection in the presence of an mCherry reporter. Cells were measured either immediately after staining or in the case of live cells immediately after harvesting and washing with PBS. Data were acquired on a BD FACSCalibur (BD Biosciences) and analyzed with FlowJo software (version 10).
For live cell imaging cells were plated in PhenoPlate 96-well plates or Ibidi m-Slide 8 (Ibidi) wells at 16 k/well and incubated over-night. Then compounds were added, if indicated, and cells were imaged after 24 h of incubation. Cells were stained with LysoTracker Deep Red L12492 (ThermoFisher) and Hoechst 34580 (ThermoFisher). […] Images were analyzed with Fiji-ImageJ.
Encouraged by the fact that the chemical entity of the present invention was showing the desired behavior and specificity profile, it became important to better clarify the molecular basis of this uncommon mechanism of action, i.e interference with a highly specific protein interaction leading to degradation of a single complex component. The effect of dTASL1 on complex assembly was first monitored. […]

TASL-SLC15A4 complex, sequence (Q8N697 whole entry, one chain of several): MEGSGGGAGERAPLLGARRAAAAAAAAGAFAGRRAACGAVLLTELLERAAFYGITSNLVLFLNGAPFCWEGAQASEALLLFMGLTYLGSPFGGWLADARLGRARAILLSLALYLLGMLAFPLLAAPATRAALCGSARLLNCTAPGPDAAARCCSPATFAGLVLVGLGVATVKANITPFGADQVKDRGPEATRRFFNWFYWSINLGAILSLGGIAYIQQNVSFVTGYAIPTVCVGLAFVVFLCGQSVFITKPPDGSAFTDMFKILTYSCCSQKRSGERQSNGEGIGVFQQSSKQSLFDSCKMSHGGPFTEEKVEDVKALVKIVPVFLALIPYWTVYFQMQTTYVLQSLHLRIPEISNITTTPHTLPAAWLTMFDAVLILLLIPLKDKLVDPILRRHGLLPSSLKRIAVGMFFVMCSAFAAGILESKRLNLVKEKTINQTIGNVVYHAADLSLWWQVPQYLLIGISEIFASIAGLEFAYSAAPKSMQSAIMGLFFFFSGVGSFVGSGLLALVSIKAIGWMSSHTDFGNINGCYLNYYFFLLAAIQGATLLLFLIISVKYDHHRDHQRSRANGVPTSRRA
ΔN-SLC15A4-GFP, sequence (Q8N697 whole entry, stated change not applied): as the sequence (Q8N697 whole entry, one chain of several) above

As to `CCOc1ccc(-c2cc(C(=O)NCCCN3CCCCC3C)c3ccccc3n2)cc1` (stereo not drawn) [dTASL1, 2-(4-ethoxyphenyl)-N-(3-(2-methylpiperidin-1-yl)propyl) quinoline-4-carboxamide], the “TLR7/8-induced IRF5 activation” value in the test on IRF5 is recorded as “specifically impairs TLR7/8-induced IRF5 activation”. Also, the “PM-associated TASL levels” value on TASL-SLC15A4 complex is recorded as “severely reduced PM-associated TASL levels”. Further, the “levels or localization of ΔN-SLC15A4-GFP” value on ΔN-SLC15A4-GFP is “did not affect levels or localization of ΔN-SLC15A4-GFP”.
